Experimental findings from the CombiSolv-Exp solvation set (Vermeire and Green 2021) are described below.

The series can be described thus: solvent given as SMILES.
[1] abbreviates: in CCCCCCCCC=CCCCCCCCC(=O)OCC(COC(=O)CCCCCCCC=CCCCCCCCC)OC(=O)CCCCCCCC=CCCCCCCCC

For the compound `NC(=O)c1ccccc1O`, the “solvation free energy, 298 K” value is, setting by setting: (in C1CCOC1) -13.2 kcal/mol; (in C1COCCO1) -13 kcal/mol; (in CC(C)(C)O) -12.1 kcal/mol; (in CC(C)=O) -13 kcal/mol; (in CC(C)CCO) -11.9 kcal/mol; (in CC(C)CO) -11.9 kcal/mol. Moreover, the “solvation free energy, 298 K” value is -12.2 kcal/mol (in CC(C)O); -12.8 kcal/mol (in CC(C)OCCO); -12.6 kcal/mol (in CC(O)COC(C)(C)C); -12.2 kcal/mol (in CCC(C)O); -12.1 kcal/mol (in CCCC(C)O); -11.6 kcal/mol (in CCCCCCCCCCO). In addition, the “solvation free energy, 298 K” value is -11.7 kcal/mol (in CCCCCCCCO); -11.8 kcal/mol (in CCCCCCCO); -12 kcal/mol (in CCCCCCO); -12 kcal/mol (in CCCCCO); -12.1 kcal/mol (in CCCCO); -12.3 kcal/mol (in CCCCOC(C)=O). Further, the “solvation free energy, 298 K” value (in CCCCOCCCC) is -10.5 kcal/mol; the “solvation free energy, 298 K” value (in CCCCOCCO) is -12.6 kcal/mol; the “solvation free energy, 298 K” value (in CCCO) is -12.3 kcal/mol; the “solvation free energy, 298 K” value (in CCCOC(C)=O) was -12.4 kcal/mol; the “solvation free energy, 298 K” value (in CCCOCCO) was -12.8 kcal/mol; the “solvation free energy, 298 K” value (in CCO) was -12.5 kcal/mol. Further, the “solvation free energy, 298 K” value is, setting by setting: (in CCOC(C)=O) -12.6 kcal/mol; (in CCOCCO) -13 kcal/mol; (in CO) -12.7 kcal/mol; (in COC(C)=O) -12.8 kcal/mol; (in COC(C)CCO) -12.7 kcal/mol; (in Fc1ccccc1) -10.6 kcal/mol. The “solvation free energy, 298 K” value (in O) was -10.4 kcal/mol.
On to `CNc1nc(NC(C)C)nc(SC)n1`, for which the “solvation free energy, 298 K” value (in O) is -10.5 kcal/mol.
On the same count and under the same terms, the result for `CCOP(=S)(OCC)Oc1cc(C)nc(C(C)C)n1` reads -6.48 kcal/mol.
For `Oc1ccccc1F`, the “solvation free energy, 298 K” value was -4.58 kcal/mol (in CC(C)CC(C)(C)C); -4.69 kcal/mol (in CCCCCC); -4.7 kcal/mol (in CCCCCCC); -4.52 kcal/mol (in CCCCCCCC); -4.58 kcal/mol (in CCCCCCCCCC); -5.86 kcal/mol (in Cc1ccc(C)cc1). The “solvation free energy, 298 K” value runs as follows: (in Cc1cccc(C)c1) -5.89 kcal/mol; (in Cc1ccccc1C) -5.96 kcal/mol; (in O) -5.29 kcal/mol.
Consider `Cl`, for which the “solvation free energy, 298 K” value reads like this: (in C=CCCCCCCCCCCCCCC) -0.82 kcal/mol; (in ClC(Cl)(Cl)Cl) -0.86 kcal/mol.
Turning to `COC(OC)(OC)C(F)(F)F`, for the setting “in O”, the “solvation free energy, 298 K” value is -0.8 kcal/mol.
In the case of `CC1CCCC(C)(C)C1` (stereo not given), the “solvation free energy, 298 K” value (in O) was 2.23 kcal/mol.
With `CC(=O)OC(C)C`, the “solvation free energy, 298 K” value (in CC(C)CCCC(C)CCCC(C)CCCCC(C)CCCC(C)CCCC(C)C) is -3.52 kcal/mol; the “solvation free energy, 298 K” value (in CCCCCCCCCC) was -3.79 kcal/mol; the “solvation free energy, 298 K” value (in CCCCCCCCCCCCCCCC) was -3.55 kcal/mol; the “solvation free energy, 298 K” value (in CCCCCCCCO) was -3.99 kcal/mol; the “solvation free energy, 298 K” value (in O) is -2.59 kcal/mol; the “solvation free energy, 298 K” value (in [2H]O[2H]) is -2.62 kcal/mol.
Regarding `CC(C)Br`, the “solvation free energy, 298 K” value by setting is: (in C=CCCCCCCCCCCCCCC) -3.29 kcal/mol; (in O) -0.48 kcal/mol.
In the case of `c1cc2cccc3c4cccc5cccc(c(c1)c23)c54`, the “solvation free energy, 298 K” value by setting is: under setting [1], -16.9 kcal/mol; (in O) -7.83 kcal/mol.
Turning to `c1cc[nH]c1`, the “solvation free energy, 298 K” value (in O) was -4.78 kcal/mol.
Turning to `CCOCCOC`, the “solvation free energy, 298 K” value (in ClC(Cl)(Cl)Cl) is -5.85 kcal/mol.
Consider `CCc1ccncc1`, for which the “solvation free energy, 298 K” value (in O) was -4.73 kcal/mol.
As to `C=C(C)CC(C)(C)C`, the “solvation free energy, 298 K” value is, setting by setting: (in CCC(C)=O) -4.34 kcal/mol; (in O) 2.01 kcal/mol; (in OCCO) -1.42 kcal/mol; (in OCCOCCO) -2.19 kcal/mol; (in OCCOCCOCCO) -2.29 kcal/mol.
Turning to `CCCCCOC(C)=O`, the “solvation free energy, 298 K” value runs as follows: (in CCCCCC) -5.57 kcal/mol; (in CCCCCCC) -5.48 kcal/mol; (in CCCCCCCC) -5.42 kcal/mol; (in CCCCCCCCCC) -5.37 kcal/mol; (in CCCCCCCCCCCCCCCC) -5.24 kcal/mol; (in CCCCCCCCO) -5.61 kcal/mol. Further, the “solvation free energy, 298 K” value reads like this: (in NC=O) -4.32 kcal/mol; (in O) -2.48 kcal/mol; (in [2H]O[2H]) -2.55 kcal/mol.
For `Clc1cc(Cl)c(-c2ccc(Cl)c(Cl)c2Cl)cc1Cl`, the “solvation free energy, 298 K” value reads like this: (in CCCCCCCCO) -13.2 kcal/mol; (in O) -3.34 kcal/mol.
As to `CCCCN(CC)C(=O)SCCC`, under “in O”, the “solvation free energy, 298 K” value is -3.64 kcal/mol.
On to `FC(F)(Cl)Cl`, for which the “solvation free energy, 298 K” value is, setting by setting: (in CCCCCCC) -1.8 kcal/mol; (in CCCCCCCC) -1.76 kcal/mol; (in CCCCCCCC(=O)OCC(COC(=O)CCCCCCC)OC(=O)CCCCCCC) -1.36 kcal/mol; (in CCCCCCCCC) -1.68 kcal/mol; (in CCCCCCCCO) -1.34 kcal/mol; (in ClC(Cl)(Cl)Cl) -1.92 kcal/mol.
Consider `CC(=O)CC(=O)c1ccc(F)c(F)c1F`, for which, under “in O”, the “solvation free energy, 298 K” value is -5.07 kcal/mol.
`O=C(O)c1cc(-c2ccc(F)cc2F)ccc1O`: the “solvation free energy, 298 K” value (in O) was -9.4 kcal/mol.
Take `CCC(C)(C)OC`: the “solvation free energy, 298 K” value (in CC(=O)N(C)C) was -3.92 kcal/mol; the “solvation free energy, 298 K” value (in CC(C)(C)O) is -4.22 kcal/mol; the “solvation free energy, 298 K” value (in CC(C)CC(C)(C)C) was -4.24 kcal/mol; the “solvation free energy, 298 K” value (in CCCCCC) was -4.47 kcal/mol; the “solvation free energy, 298 K” value (in CCCCCCC) is -4.24 kcal/mol; the “solvation free energy, 298 K” value (in CCCCCCCCCC) was -4.16 kcal/mol. In addition, the “solvation free energy, 298 K” value was -4.07 kcal/mol (in CCCCCCCCO); -4.11 kcal/mol (in CCCCN(C=O)CCCC); -3.85 kcal/mol (in CCN1CCCC1=O); -4.04 kcal/mol (in CCN(CC)C(C)=O); -3.86 kcal/mol (in CCNC(C)=O); -3.79 kcal/mol (in CCNC=O). For the same compound, the “solvation free energy, 298 K” value runs as follows: (in CN1CCCCC1=O) -3.86 kcal/mol; (in CN(C)C=O) -3.78 kcal/mol; (in CNC(C)=O) -3.75 kcal/mol; (in CNC=O) -3.62 kcal/mol; (in CO) -4.26 kcal/mol; (in O) -1.77 kcal/mol.
Consider `Cn1cccc1`, for which, where the note is “in O”, the “solvation free energy, 298 K” value was -2.89 kcal/mol.
Still for that read-out and setting: the figure for `O=c1[nH]cc(C(F)(F)F)c(=O)[nH]1` is -15.5 kcal/mol; for `CN1C(=O)CN=C(c2ccccc2)c2cc(Cl)ccc21` it is -12.6 kcal/mol.
Turning to `Cc1cccc2ccccc12`, the “solvation free energy, 298 K” value was -7.47 kcal/mol (in CCO), -2.32 kcal/mol (in O) and -7.33 kcal/mol (in OCCOCCO).
As for `C=C(C)C1=CC=C(C)CC1`, the “solvation free energy, 298 K” value (in O) was -1.35 kcal/mol.
As to `Clc1c(Cl)c(Cl)c2c(c1Cl)Oc1ccccc1O2`, where the note is “in O”, the “solvation free energy, 298 K” value is -3.81 kcal/mol.
On the same count and under the same terms, the figure for `Clc1ccc2c(c1)Oc1ccccc1O2` is -3.1 kcal/mol; for `COC(C)OC` it is -3.26 kcal/mol.
Still for that read-out and setting: the result for `CCCCC(=O)CC(=O)CCCC` reads -4.13 kcal/mol; that for `COC(=O)C1CC1`, -4.1 kcal/mol.
On to `C=C(C)c1ccccc1`, for which the “solvation free energy, 298 K” value is, setting by setting: (in CC(C)=O) -6.37 kcal/mol; (in O) -1.28 kcal/mol.
In the case of `C=CC=CCC`, the “solvation free energy, 298 K” value is, setting by setting: (in C=CCCCCCCCCCCCCCC) -3.64 kcal/mol; (in CN1CCCC1=O) -3.67 kcal/mol; (in O) 0.75 kcal/mol.
For the compound `BrCBr`, the “solvation free energy, 298 K” value was -3.87 kcal/mol (in CCCCCCCCCCCCCCCC), -4.19 kcal/mol (in CCCCCCCCO), -2.01 kcal/mol (in O) and -2.03 kcal/mol (in [2H]O[2H]).
Turning to `CC(=O)c1ccc(C)cc1`, where the note is “in O”, the “solvation free energy, 298 K” value was -4.7 kcal/mol.
Same read-out and setting: the result for `CCCCC(=O)OCC` reads -2.49 kcal/mol; that for `CC(=O)OC(C)OC(C)=O`, -4.97 kcal/mol.
With `CC(=O)c1ccccc1`, the “solvation free energy, 298 K” value by setting is: (in CCCCCC) -6.05 kcal/mol; (in CCCCCCCCCCCCCCCC) -6.04 kcal/mol; (in O) -4.58 kcal/mol.
Take `C=C(Cl)Cl`: the “solvation free energy, 298 K” value is -3.25 kcal/mol (in CCO), -2.95 kcal/mol (in CO) and 0.22 kcal/mol (in O).
For `CC1=CC(=O)C(C(C)C)CC1` (stereo not given), the “solvation free energy, 298 K” value (in O) was -4.51 kcal/mol.
The same measure, in the same setting: the result for `CCC(C)OC(C)CC` (stereo not given) reads -0.8 kcal/mol.
For the compound `CC(Cl)(Cl)Cl`, the “solvation free energy, 298 K” value (in C1CCOC1) is -4.35 kcal/mol; the “solvation free energy, 298 K” value (in CC(=O)CC(C)C) is -4.28 kcal/mol; the “solvation free energy, 298 K” value (in CC(C)=O) is -4.23 kcal/mol; the “solvation free energy, 298 K” value (in CC(C)O) was -3.56 kcal/mol; the “solvation free energy, 298 K” value (in CCCCCCCCCCCCCC) was -3.61 kcal/mol; the “solvation free energy, 298 K” value (in CCCCCCCCCCCCCCCC) is -3.67 kcal/mol. Also, the “solvation free energy, 298 K” value (in CCCCCCCCN(CCCCCCCC)CCCCCCCC) was -3.63 kcal/mol; the “solvation free energy, 298 K” value (in CCCCCCCCO) is -3.67 kcal/mol; the “solvation free energy, 298 K” value (in CCCCCN(CCCCC)CCCCC) is -3.78 kcal/mol; the “solvation free energy, 298 K” value (in CCCCCl) was -4.32 kcal/mol; the “solvation free energy, 298 K” value (in CCCCN(CCCC)CCCC) was -3.69 kcal/mol; the “solvation free energy, 298 K” value (in CCCCOCCCC) is -4.08 kcal/mol. Besides, the “solvation free energy, 298 K” value (in CCCO) is -3.94 kcal/mol; the “solvation free energy, 298 K” value (in CCOCC) is -4.13 kcal/mol; the “solvation free energy, 298 K” value (in ClC(Cl)(Cl)Cl) is -4.24 kcal/mol; the “solvation free energy, 298 K” value (in ClC(Cl)Cl) was -4.42 kcal/mol; the “solvation free energy, 298 K” value (in ClCCCl) is -4.24 kcal/mol; the “solvation free energy, 298 K” value (in [2H]O[2H]) is -0.57 kcal/mol.
Regarding `O=[N+]([O-])c1c(Cl)c(Cl)c(Cl)c(Cl)c1Cl`, under setting [1], the “solvation free energy, 298 K” value is -10.5 kcal/mol.
As to `COc1ccccc1OC`, under “in O”, the “solvation free energy, 298 K” value was -5.33 kcal/mol.
On to `C=CC(C)(C)C`, for which the “solvation free energy, 298 K” value is, setting by setting: (in C=CCCCCCCCCCCCCCC) -2.97 kcal/mol; (in O) 1.57 kcal/mol.
Turning to `CC(C)(C)OC(=O)c1ccccc1C(=O)OC(C)(C)C`, the “solvation free energy, 298 K” value (in O) is -7.09 kcal/mol.
With `C=C(C)CCC`, under “in O”, the “solvation free energy, 298 K” value was found to be 1.46 kcal/mol.
For `COC(=O)c1ccc(N(C)C)cc1`, the “solvation free energy, 298 K” value is -11.9 kcal/mol (in CN(C)C=O) and -7.01 kcal/mol (in O).
For the compound `CCCCCCCCCCCO`, the “solvation free energy, 298 K” value (in CCCCCCCCCCO) is -10.3 kcal/mol.
Turning to `OCC(O)C(O)C(O)C(O)CO` (stereo not given), the “solvation free energy, 298 K” value (in O) was -23.6 kcal/mol.
On to `CCCCCCCCCCCCO`, for which the “solvation free energy, 298 K” value was -8.62 kcal/mol (in CC(C)CC(C)(C)C), -9.26 kcal/mol (in CCCCCC) and -10.2 kcal/mol under setting [1].
